# From patent US20260272897A1 (Bayer Aktiengesellschaft, priority 2024, published 2026)
# Read-outs that look alike come from different tables or passages of the source.
# Columns and labels:
# [1] = in vivo; cited from earlier work
# [2] = system: patients with heart failure and a left ventricular ejection fraction ≥40%; assay type: in vivo
structure (smiles),measurement,setting,value
"CCOc1ncc(C)c2c1[C@H](c1ccc(C#N)cc1OC)C(C(N)=O)=C(C)N2 [finerenone, (4S)-4-(4-cyano-2-methoxyphenyl)-5-ethoxy-2,8-dimethyl-1,4-dihydro-1,6-naphthyridine-3-carboxamide]",active metabolites,[1],no active metabolites
same,Total worsening HF events: Event rate per 100 PY,[2]; bilirubin Tertile 2 0.5-0.6 mg/dL,9.7 per 100 PY
same,Total worsening HF events: Event rate per 100 PY,[2]; bilirubin Tertile 3 ≥0.7 mg/dL,12.6 per 100 PY
same,"primary events (total worsening heart failure events and cardiovascular death), number of events","[2]; finerenone group, median 32 months","1,083"
